Data published in patent US4590191A, “Soporific containing lorazepam” (Medichemie AG, priority 1984, dated 1986).
Read-outs that look alike come from different tables or passages of the source.

Tests used:
[1] = system: white mice; assay: Acute oral toxicity (lethality) in mice; details: oral, mice
[2] = Acute oral toxicity (lethality) in mice; details: mouse, in vivo, po
[3] = cited from earlier work

CN(C)CCOC(c1ccccc1)c1ccccc1 [diphenhydramine, 2-(diphenyl-methoxy)-N,N-dimethyl ethanamine]
DL 95 [1]: 645 mg/kg

O=C1Nc2ccc(Cl)cc2C(c2ccccc2Cl)=NC1O (stereo not shown) [lorazepam, 7-chlor-5-(2-chlorphenyl)-1,3-dihydro-3-hydroxy-2H-1,4 benzodiazepin-2-on]
LD50 [2]: 3180 mg/kg
hypnotic or soporific effect (in words) ([3]; 1 mg): often insufficient
side effects (in words) ([3]; 2 to 3 mg, in individual cases): subjectively unpleasant side effects can occur
half-life (in words) ([3]; in vivo): medium half-life
ratio between effect and tolerance (in words) ([3]; single dose of 1 mg): especially good ratio between effect and tolerance
side effects (in words) ([3]; somewhat higher doses, may occur in the next few days): relatively strong side effects, such as muscle relaxation, ataxia and sedative after-effects
